{"source": "patent US20210386738A1", "about": "“COMBINATION OF PRMT5 INHIBITORS AND BCL-2 INHIBITORS” (GLAXOSMITHKLINE INTELLECTUAL PROPERTY DEVELOPMENT LIMITED, priority 2018, published 2021)", "tested_on": "lymphoma cell line DB", "test": "Serial dilutions: fixed ABT-199 concentration with Compound A titration, six-day cell proliferation", "type": "cell-based", "conditions": "for compound A required for gIC100: six days", "protocol": "Serial dilutions were performed for the combination to ascertain the change in gIC50, gIC100 and dEC50 when the inhibitors are used together in a PRMT5 inhibitor cell proliferation. A first compound plate was prepared where PRMT5 inhibitor, Compound A, was prepared with a 20-point, two-fold dilution series of compound A from column 1 to 20. A second compound plate was prepared using the BCL-2 inhibitor ABT-199. ABT-199 was titrated in a 16-point 2-fold dilution series from row A to Q. A third plate was then created by added equal volume of 12 ul (ABT-199) from each well in the second plate into the corresponding well in the first plate. The third plate comprised rows from A to Q, each row comprising a fixed concentration of ABT-199. Columns 1-20 comprised varying concentrations of compound A from the 20-point dilution. Plates were incubated for six days at the conditions described above. Lymphoma cell line DB was treated with the solution in each of the wells. Cell growth was measured using CellTiter-Glo (Promega) and luminescence signal was detected with a BioTek Synergy Neo microplate reader. A plate of untreated cells was read at the time of compound/biologic addition to determine the T0 value representing the starting number of cells. Data were fit with a four-parameter equation to generate a concentration response curve for each row using Assay Client software. A comparison was made across each row in the third plate to determine, when keeping a fixed concentration of ABT-199, what concentration of compound A is needed to reach the gIC50, gIC100 or dEC50 respectively and the fold change compared to treating the same cell with compound A alone.\nTables 4a-c show the results of the above serial dilution experiments wherein ‘fold change’ is the difference between the amount of compound A needed to achieve gIC50, gIC100 or dEC50 respectively, compared to the amount of compound A needed to achieve gIC50, gIC100 or dEC50 respectively when compound A is given as a single agent."}
{"smiles": "O=C(NC[C@H](O)CN1CCc2ccccc2C1)c1ccnc(NC2CCC2)c1", "note": "[Compound A]", "values": [{"measurement": "Fold change over compound A single agent gIC50 (631 nM, most potent of the two agents)", "setting": "with fixed ABT-199 4 nM", "result": 1.2}, {"measurement": "Fold change over compound A single agent gIC100 (6489 nM, most potent of the two agents)", "setting": "with fixed ABT-199 4 nM", "result": 0.9}, {"measurement": "compound A required for gIC100", "setting": "with fixed ABT-199 4 nM", "result": 6989, "unit": "nM"}, {"measurement": "Fold change over compound A single agent gIC50 (631 nM, most potent of the two agents)", "setting": "with fixed ABT-199 7 nM", "result": 1.4}, {"measurement": "Fold change over compound A single agent gIC100 (6489 nM, most potent of the two agents)", "setting": "with fixed ABT-199 7 nM", "result": 1.0}, {"measurement": "compound A required for gIC100", "setting": "with fixed ABT-199 7 nM", "result": 6362, "unit": "nM"}, {"measurement": "Fold change over compound A single agent gIC50 (631 nM, most potent of the two agents)", "setting": "with fixed ABT-199 14 nM", "result": 1.6}, {"measurement": "Fold change over compound A single agent gIC100 (6489 nM, most potent of the two agents)", "setting": "with fixed ABT-199 14 nM", "result": 0.9}, {"measurement": "compound A required for gIC100", "setting": "with fixed ABT-199 14 nM", "result": 6896, "unit": "nM"}, {"measurement": "Fold change over compound A single agent gIC50 (631 nM, most potent of the two agents)", "setting": "with fixed ABT-199 29 nM", "result": 1.8}, {"measurement": "Fold change over compound A single agent gIC100 (6489 nM, most potent of the two agents)", "setting": "with fixed ABT-199 29 nM", "result": 1.2}, {"measurement": "compound A required for gIC100", "setting": "with fixed ABT-199 29 nM", "result": 5525, "unit": "nM"}, {"measurement": "Fold change over compound A single agent gIC50 (631 nM, most potent of the two agents)", "setting": "with fixed ABT-199 57 nM", "result": 2.6}, {"measurement": "Fold change over compound A single agent gIC100 (6489 nM, most potent of the two agents)", "setting": "with fixed ABT-199 57 nM", "result": 2.2}, {"measurement": "Fold change over top concentration of compound A or ABT-199 inhibitor used in the assay (since no dEC50 observed with single agents)", "setting": "with fixed ABT-199 57 nM", "result": 1.2}, {"measurement": "compound A required for gIC100", "setting": "with fixed ABT-199 57 nM", "result": 3004, "unit": "nM"}, {"measurement": "Fold change over compound A single agent gIC50 (631 nM, most potent of the two agents)", "setting": "with fixed ABT-199 115 nM", "result": 3.0}, {"measurement": "Fold change over compound A single agent gIC100 (6489 nM, most potent of the two agents)", "setting": "with fixed ABT-199 115 nM", "result": 2.4}, {"measurement": "Fold change over top concentration of compound A or ABT-199 inhibitor used in the assay (since no dEC50 observed with single agents)", "setting": "with fixed ABT-199 115 nM", "result": 1.4}, {"measurement": "compound A required for gIC100", "setting": "with fixed ABT-199 115 nM", "result": 2716, "unit": "nM"}, {"measurement": "Fold change over compound A single agent gIC50 (631 nM, most potent of the two agents)", "setting": "with fixed ABT-199 229 nM", "result": 5.5}, {"measurement": "Fold change over compound A single agent gIC100 (6489 nM, most potent of the two agents)", "setting": "with fixed ABT-199 229 nM", "result": 2.5}, {"measurement": "Fold change over top concentration of compound A or ABT-199 inhibitor used in the assay (since no dEC50 observed with single agents)", "setting": "with fixed ABT-199 229 nM", "result": 1.4}, {"measurement": "compound A required for gIC100", "setting": "with fixed ABT-199 229 nM", "result": 2624, "unit": "nM"}, {"measurement": "Fold change over compound A single agent gIC50 (631 nM, most potent of the two agents)", "setting": "with fixed ABT-199 458 nM", "result": 5.3}, {"measurement": "Fold change over compound A single agent gIC100 (6489 nM, most potent of the two agents)", "setting": "with fixed ABT-199 458 nM", "result": 3.1}, {"measurement": "Fold change over top concentration of compound A or ABT-199 inhibitor used in the assay (since no dEC50 observed with single agents)", "setting": "with fixed ABT-199 458 nM", "result": 1.7}, {"measurement": "compound A required for gIC100", "setting": "with fixed ABT-199 458 nM", "result": 2118, "unit": "nM"}, {"measurement": "Fold change over compound A single agent gIC50 (631 nM, most potent of the two agents)", "setting": "with fixed ABT-199 916 nM", "result": 8.1}, {"measurement": "Fold change over compound A single agent gIC100 (6489 nM, most potent of the two agents)", "setting": "with fixed ABT-199 916 nM", "result": 3.3}, {"measurement": "Fold change over top concentration of compound A or ABT-199 inhibitor used in the assay (since no dEC50 observed with single agents)", "setting": "with fixed ABT-199 916 nM", "result": 2.6}, {"measurement": "compound A required for gIC100", "setting": "with fixed ABT-199 916 nM", "result": 1994, "unit": "nM"}, {"measurement": "Fold change over compound A single agent gIC50 (631 nM, most potent of the two agents)", "setting": "with fixed ABT-199 1833 nM", "result": 8.5}, {"measurement": "Fold change over compound A single agent gIC100 (6489 nM, most potent of the two agents)", "setting": "with fixed ABT-199 1833 nM", "result": 4.0}, {"measurement": "Fold change over top concentration of compound A or ABT-199 inhibitor used in the assay (since no dEC50 observed with single agents)", "setting": "with fixed ABT-199 1833 nM", "result": 3.1}, {"measurement": "compound A required for gIC100", "setting": "with fixed ABT-199 1833 nM", "result": 1604, "unit": "nM"}, {"measurement": "Fold change over compound A single agent gIC50 (631 nM, most potent of the two agents)", "setting": "with fixed ABT-199 3666 nM", "result": 7.8}, {"measurement": "Fold change over compound A single agent gIC100 (6489 nM, most potent of the two agents)", "setting": "with fixed ABT-199 3666 nM", "result": 3.7}, {"measurement": "Fold change over top concentration of compound A or ABT-199 inhibitor used in the assay (since no dEC50 observed with single agents)", "setting": "with fixed ABT-199 3666 nM", "result": 3.3}, {"measurement": "compound A required for gIC100", "setting": "with fixed ABT-199 3666 nM", "result": 1745, "unit": "nM"}, {"measurement": "Fold change over compound A single agent gIC50 (631 nM, most potent of the two agents)", "setting": "with fixed ABT-199 7331 nM", "result": 43}, {"measurement": "Fold change over compound A single agent gIC100 (6489 nM, most potent of the two agents)", "setting": "with fixed ABT-199 7331 nM", "result": 3.8}, {"measurement": "Fold change over top concentration of compound A or ABT-199 inhibitor used in the assay (since no dEC50 observed with single agents)", "setting": "with fixed ABT-199 7331 nM", "result": 3.2}, {"measurement": "compound A required for gIC100", "setting": "with fixed ABT-199 7331 nM", "result": 1707, "unit": "nM"}]}
